Laboratory results as given in PubChem BioAssay (NCI).
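Results reflect a 48-hour exposure of cells in 96-well plates to compound at five concentrations. Abbreviation: GI50, concentration required for 50% inhibition of growth. At the TGI there is no net growth.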

What was measured:
Experiment in all cases: inhibition of tumour cell growth, NCI panel, 48 h
[1] = test system: IGROV1 ovarian
[2] = test system: SW-620 colon
[3] = test system: SNB-19 CNS
[4] = test system: ACHN renal
[5] = test system: SK-MEL-2 melanoma
[6] = test system: UACC-257 melanoma
[7] = test system: SK-MEL-5 melanoma
[8] = test system: A498 renal
[9] = test system: OVCAR-4 ovarian
[10] = test system: HCT-116 colon

Compound	GI50 [1]	TGI [1]	GI50 [2]	TGI [2]	GI50 [3]	TGI [3]	GI50 [4]	TGI [4]	GI50 [5]	TGI [5]	GI50 [6]	TGI [6]	GI50 [7]	TGI [7]	GI50 [8]	TGI [8]	GI50 [9]	TGI [9]	GI50 [10]	TGI [10]
CC(=O)[CH-]C(=O)c1ccccc1.CC(=O)[CH-]C(=O)c1ccccc1.CCOCC[O-].CCOCC[O-].[Ti+4]	31.9 µM	> 100 µM	28.3 µM	> 100 µM	18.1 µM	38.6 µM	31.6 µM	> 100 µM	14.2 µM	29.6 µM	33.8 µM	> 100 µM	22.5 µM	53.3 µM	22.9 µM	47.9 µM	31.9 µM	> 100 µM	17.3 µM	35.6 µM
CCOC(=O)CC1C(COC(=O)NC)OC(n2cnc3c(NC(=O)Nc4ccccc4)ncnc32)C1O[Si](C)(C)C(C)(C)C (stereo not given)	13.7 µM	> 100 µM	4.59 µM	78.1 µM	49.2 µM	> 100 µM	5.92 µM	> 100 µM	13.2 µM	57.3 µM	20.8 µM	> 100 µM	5.7 µM	18.6 µM	4.65 µM	21.4 µM	10.7 µM	> 100 µM	2.33 µM	5.38 µM
CCCC(CCC)C(=O)OCC1(CO)C/C(=C\c2ccc(F)cc2)C(=O)O1 (stereo not given)	15.5 µM	32.7 µM	6.93 µM	20.7 µM	18.2 µM	32.2 µM	9.32 µM	23.4 µM	17.2 µM	34.1 µM	14.7 µM	28.7 µM	0.829 µM	17 µM	1.46 µM	12.4 µM	13.9 µM	28.4 µM	13.6 µM	27.1 µM
COc1cc(-c2nc(-c3nc4ccccc4[nH]3)cc3c2[nH]c2ccccc23)cc(OC)c1OC	2.94 µM	> 100 µM	7.14 µM	> 100 µM	9.45 µM	> 100 µM	4.86 µM	> 100 µM	3.58 µM	> 100 µM	3.57 µM	> 100 µM	2.99 µM	> 100 µM	2.43 µM	> 100 µM	47.4 µM	> 100 µM	3.95 µM	> 100 µM
CC(C)(C)[Si](C)(C)OC1[C@@H](O[Si](C)(C)C(C)(C)C)[C@@H](CNC(=O)NC(=O)CCl)O[C@H]1n1cnc2c(NC(=O)Nc3ccccc3)ncnc21 (stereo not given in full)	0.111 µM	0.233 µM	0.441 µM	1.36 µM	1.11 µM	3.96 µM	0.782 µM	1.54 µM	1.13 µM	2.01 µM	0.884 µM	1.89 µM	0.833 µM	1.55 µM	0.902 µM	2.11 µM	0.7 µM	1.57 µM	0.719 µM	1.51 µM
Nc1ccn(C2OC(COC(=O)C34CC5CC(CC(C5)C3)C4)C(O)C2O)c(=O)n1 (stereo not given)		> 100 µM		> 100 µM		> 100 µM		> 100 µM		> 100 µM		> 100 µM		> 100 µM		> 100 µM		> 100 µM		> 100 µM
